Source: ChEMBL document CHEMBL3988442, “University of Dundee, Small-Polar-MMV Screening Library” (2021)
Where “and” joins values, the source holds several entries; their conditions need not be identical. Equal values may be shown once.

Tests used:
[1] = molecular target: AMP-activated protein kinase, AMPK; experiment: AMP-dependent Kinase enzyme assay. An in vitro enzyme assay that detects ADP turnover that is directly proportional to AMPK activity. This uses naive AMPK that is activated during the assay with MK-8722; format: functional, Homo sapiens
Histidine--tRNA ligase [2] = molecular target: T1, Histidine--tRNA ligase (Leishmania infantum, UniProt A4I591); experiment: Leishmania infantum Histidine tRNA synthetase (LdHisRS); format: functional
T1 sequence (A4I591 whole entry): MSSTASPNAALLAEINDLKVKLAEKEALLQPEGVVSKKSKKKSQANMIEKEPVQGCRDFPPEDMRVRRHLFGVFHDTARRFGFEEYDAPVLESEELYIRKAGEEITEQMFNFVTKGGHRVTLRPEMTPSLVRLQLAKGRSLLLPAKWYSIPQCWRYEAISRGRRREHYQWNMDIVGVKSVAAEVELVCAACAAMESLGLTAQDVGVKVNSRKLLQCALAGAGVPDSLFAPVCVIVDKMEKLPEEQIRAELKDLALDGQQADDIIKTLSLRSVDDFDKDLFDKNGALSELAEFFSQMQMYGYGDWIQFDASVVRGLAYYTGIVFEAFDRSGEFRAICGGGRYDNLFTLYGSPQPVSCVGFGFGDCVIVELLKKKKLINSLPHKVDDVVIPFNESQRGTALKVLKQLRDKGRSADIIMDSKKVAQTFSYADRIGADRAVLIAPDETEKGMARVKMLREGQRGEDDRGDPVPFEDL

[3] = microbe, parasite or virus in culture; details: Mycobacterium tuberculosis, 72 h, read-out: pIC50 (converted)
Histidine--tRNA ligase [4] = molecular target: T2, Histidine--tRNA ligase (Trypanosoma cruzi (strain CL Brener), UniProt Q4DA54); experiment: Trypanosoma cruzi histidyl tRNA synthetase (Tc-HisRS); format: functional
T2 sequence (Q4DA54 whole entry): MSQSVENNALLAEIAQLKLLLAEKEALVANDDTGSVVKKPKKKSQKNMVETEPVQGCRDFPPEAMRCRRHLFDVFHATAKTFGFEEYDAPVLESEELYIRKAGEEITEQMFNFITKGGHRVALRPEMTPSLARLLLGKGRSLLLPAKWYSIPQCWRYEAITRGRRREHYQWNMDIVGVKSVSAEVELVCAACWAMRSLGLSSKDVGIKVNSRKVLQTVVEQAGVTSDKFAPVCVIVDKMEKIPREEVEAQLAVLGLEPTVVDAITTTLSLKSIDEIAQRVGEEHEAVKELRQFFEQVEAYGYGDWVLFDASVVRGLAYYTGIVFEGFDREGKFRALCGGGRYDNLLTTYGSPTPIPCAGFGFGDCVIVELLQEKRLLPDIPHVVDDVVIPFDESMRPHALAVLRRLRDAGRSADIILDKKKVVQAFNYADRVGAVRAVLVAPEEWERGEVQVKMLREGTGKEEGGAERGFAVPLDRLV

[5] = In vitro enzyme assay to detect hydrolysis of chlorophenol red-beta-D-[…] directly proportional to the number of Toxoplasma stably expressing beta-galactosidase; format: functional, organism-based, Toxoplasma gondii
[6] = microbe, parasite or virus in culture; details: Mycobacterium tuberculosis, 96 h, read-out: pIC50 (converted)
Trypanosoma brucei = experiment: Trypanosoma brucei 72 hour study; format: functional, organism-based; details: for IC50: Trypanosoma brucei, 72 h
Leishmania donovani = experiment: Leishmania intramacrophage assay; format: functional, organism-based; details: for IC50: Leishmania donovani
Schistosoma mansoni = experiment: High throughput screening of compounds against Schistosoma mansoni motility; format: functional; set-up: dose or concentration left out as unconfirmed
ClpP1P2 = ClpP1P2 (Mycobacterium tuberculosis (strain ATCC 25618 / H37Rv), UniProt P9WPC3+P9WPC5); experiment: in vitro assay to detect presence of AMC directly proportional to the activity of ClpP1P2. GHDDI collaboration.; format: functional
Plasmodium falciparum = experiment: Calibr Malaria Delayed Death Assay SOP; format: functional, organism-based; details: for IC50: Plasmodium falciparum
[7] = molecular target: T3, Coenzyme A biosynthesis bifunctional protein CoaBC (Mycobacterium tuberculosis (strain ATCC 25618 / H37Rv), UniProt P9WNZ1); experiment: Biomol Green assay for MtCoaBC inhibitor, OD650 read; format: functional
T3 sequence (P9WNZ1 whole entry): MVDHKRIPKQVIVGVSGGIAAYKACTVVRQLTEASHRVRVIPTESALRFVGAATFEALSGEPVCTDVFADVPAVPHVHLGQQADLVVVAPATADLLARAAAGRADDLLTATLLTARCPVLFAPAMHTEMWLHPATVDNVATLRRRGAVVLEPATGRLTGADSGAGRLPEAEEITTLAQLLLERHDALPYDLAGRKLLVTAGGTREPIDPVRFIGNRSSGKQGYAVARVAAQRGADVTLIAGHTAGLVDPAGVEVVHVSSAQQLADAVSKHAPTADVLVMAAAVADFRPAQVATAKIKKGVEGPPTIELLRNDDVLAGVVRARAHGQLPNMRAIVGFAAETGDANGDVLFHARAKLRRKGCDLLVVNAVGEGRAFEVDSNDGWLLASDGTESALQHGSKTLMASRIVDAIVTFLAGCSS

[8] = system: Mycobacterium tuberculosis; experiment: Cornell M. t heat shock assay; format: functional, organism-based; details: for IC50: Mycobacterium tuberculosis

Compound | pIC50 [1] | further results
Cc1ccc(NC(=O)c2cc(S(=O)(=O)N3CCCCC3)c[nH]2)cc1F | < 4 | –
CN(C)c1nc2sc(C(=O)N3CCN(C(=O)OC(C)(C)C)CC3)cc2s1 | < 4 | –
c1cncc(-c2ccc3c(c2)C2(CCNCC2)CC3)c1 | < 4 | –
c1cc(-c2ccc3c(c2)CCC32CCNCC2)ccn1 | < 4 | IC50 (Histidine--tRNA ligase [2]): > 100 µM
c1cc(-c2ccc3c(c2)C2(CCNCC2)CC3)ccn1 | < 4 | –
CCn1nc(C)c2ccn(CC(=O)NC3CCCC3)c(=O)c21 | < 4 | –
O=C(NCC1CC1)C1CN(C(=O)c2cccc(Cl)c2)CC12CCOCC2 (stereo not given) | < 4 | –
CO[C@@H]1CC[C@H]2[C@H]1OCCN2C(=O)c1ccc(C)o1 | < 4 | –
Cc1ccsc1C(=O)N1CC(C(=O)NCC2CC2)C2(CCOCC2)C1 (stereo not given) | < 4 | –
Cc1ccsc1C(=O)N1CC(C(=O)N2CCOCC2)C2(CCOCC2)C1 (stereo not given) | < 4 | –
CCn1ncc(-c2cc(C(F)(F)F)nc(N3CCC(N)CC3)n2)c1C | – | IC50 [3]: > 50.1 µM; IC50 (Histidine--tRNA ligase [4]): > 100 µM; pIC50 [5]: 5.222 and 5.563; IC50 [6]: > 50.1 µM; pIC50 (Trypanosoma brucei): 5.225 and 5.224; IC50 (Trypanosoma brucei): 5.74 µM; IC50 (Leishmania donovani): 11.9 µM
CCNC(=O)c1nnc2ccc(N3CCOCC3)cc2n1 | < 4 | –
CC(C)c1cc(C(=O)NCCc2nc(-c3cccnc3)n[nH]2)[nH]n1 | 4.471 and 4.569 and 4.528 and 4.581 | –
Cc1cc(-c2cnc(NC3CCCC3)nc2-c2ccco2)on1 | 4.667 and < 4.31 | –
Cc1cc(-c2cnc(NC3CC3)nc2-c2ccco2)on1 | < 4 and 4.22 | –
Cc1cc(-c2cnc(NC3CC3)nc2-c2ccoc2C)on1 | < 4 | –
Cc1cc(-c2cnc(NC3CC3)nc2-c2ccoc2)on1 | < 4 | –
Cc1occc1-c1nc(NC2CCCC2)ncc1-c1ccccn1 | < 4 | –
Cc1cc(-c2cnc(NC3CCCC3)nc2-c2ccoc2)on1 | < 4 | –
CCn1cc(NC(=O)NCCN2CCCCCC2=O)cn1 | < 4 | –
CC(C)(C)NC(=O)CNc1ncccn1 | < 4 | –
CCCS(=O)(=O)N1CCN(CCCO)CC1 | < 4 | –
CC(C)COc1cncc(N2CCCN(c3ncccn3)CC2)n1 | < 4 | –
O=C1CN(C(=O)c2cc3ccc(Br)cc3[nH]2)CCN1 | < 4 | –

Compound | pIC50 [1] | further results
CN(C)C(=O)Cc1nc(CN2CCCCC2Cn2cccn2)cs1 (stereo not given) | < 4 | –
CCS(=O)(=O)CC(=O)NC(c1ccc(F)cc1)C1CCCC1 (stereo not given) | < 4 | –
CCc1csc(C2CCCN(C(=O)c3cnn(CC)c3)C2)n1 (stereo not given) | < 4 | –
Cc1nn(C)c(N2CCOCC2)c1CNC(C)c1ccco1 (stereo not given) | < 4 | Percent Effect (Schistosoma mansoni): -29.3%
CC(CN1CCN(C)CC1)NC(=O)c1cc(Cl)c2c(c1)OCO2 (stereo not given) | < 4 | Percent Effect (Schistosoma mansoni): -52.41%
CCc1nnc2n1CCN(C(=O)c1ccc3nc(C)c(C)nc3c1)C2 | < 4 | Percent Effect (Schistosoma mansoni): -15.27%
CC(C)NC(=O)N1CC[C@@H]2CN(Cc3ccccc3)S(=O)(=O)[C@@H]2CC1 | < 4 | –
C[C@H]1C[C@@H]2CCN(Cc3ccccn3)C[C@H]2O1 | < 4 | –
CNc1nc(C(=O)N2CCCC(COc3ccc(F)cc3)C2)cs1 (stereo not given) | < 4 | –
COc1cc(-c2cccc3c2OC(CN)C3)ccc1O (stereo not given) | 4.656 and 4.577 | –
NCC1Cc2cccc(-c3ccc(O)c(F)c3)c2O1 (stereo not given) | 4.898 and 4.913 | –
Cn1cnc(S(=O)(=O)N2C[C@@H]3CC[C@H](C2)N(Cc2ccccn2)C3)c1 | < 4 | –
CN(C)S(=O)(=O)NC1CCCc2c1cnn2-c1ccc(C(C)(C)C)cc1 (stereo not given) | < 4 | –
CN1CCC(c2n[nH]c(=O)n2-c2cccc(Cl)c2)CC1 | < 4 | –
COc1ccc(CC2(CO)CCN(c3cc(C#N)ccn3)CC2)cc1 | < 4 | IC50 (ClpP1P2): > 100 µM
O=C1CC2(CCN(Cc3ccc(-c4ccccc4)s3)C2)C(=O)N1 (stereo not given) | < 4 | –
Cn1ncc2c(NC3CCC3)nc(-c3ccncc3)nc21 | < 4 | –
Cc1nc(N2CCN(C)CC2)ncc1C(=O)N1CCC(O)(CO)CC1 | < 4 | –
CCc1cc(NCCc2ccc(O)cc2)n2nccc2n1 | 4.438 and 4.726 | Percent Effect (Schistosoma mansoni): -42.86%
COc1ccccc1OCc1cc(C(=O)N2CC(O)C2)n[nH]1 | < 4 | Percent Effect (Schistosoma mansoni): -18.55%
CC(C)c1cc(NC(=O)c2ccc([S+]([O-])C(C)C)cc2)[nH]n1 (stereo not given) | 5.533 and 5.17 | –
CC(C)c1cc(NC(=O)c2ccncc2)[nH]n1 | 4.474 and 4.692 | –
CC(C)c1cc(NC(=O)c2cccnc2)[nH]n1 | 4.473 and 4.751 | –
CC(C)c1n[nH]c(C(=O)Nc2ccccn2)c1Br | < 4 | pIC50 (Plasmodium falciparum): 6.515; IC50 (Plasmodium falciparum): 0.24 µM

Compound | pIC50 [1] | further results
CCOc1cc(C)nc(N2CCN(C(=O)CC)CC2)n1 | < 4 | –
Cc1cnn(CC2CN(Cc3nnc(-c4occc4C)o3)CCO2)c1 (stereo not given) | < 4 | –
Cc1cnn(CC2CN(Cc3nnc(C4CC4)o3)CCO2)c1 (stereo not given) | < 4 | –
CNC(=O)c1cccc(NC(=O)Cn2nc(-c3cccs3)oc2=O)c1 | < 4 | –
O=C(CN1CC(n2cccn2)C1)NCCc1c[nH]c2ccccc12 | < 4 | –
CC1COCCN1Cc1nc(-c2cccs2)no1 (stereo not given) | < 4 | –
Cc1cccc(-c2nc(CN3CCc4cnc(C)nc4C3)no2)c1 | < 4 | –
Cc1nc(C)n(CC2CCCN(c3ncnc4[nH]ccc34)C2)n1 (stereo not given) | 4.827 [middle of 4 runs] | –
CCc1cc(C)c(C(=O)N2CCCC2CC(=O)c2cnn(C)c2)o1 (stereo not given) | < 4 | –
CCOc1cccc2c1OCC(C(=O)NS(=O)(=O)c1ccc(Cl)cc1)=C2 | < 4 | –
CC(C)OCCCNC(=O)c1ccc(-c2ccco2)[nH]c1=O | < 4 | –
CCOCC(O)CN1CCN(C(=O)C2CC2)CC1 (stereo not given) | < 4 | –
COc1cc(C(=O)N2CCCC(CNS(C)(=O)=O)C2)cc(OC)c1C (stereo not given) | < 4 | –
O=C(NCCNc1ccc(C(F)(F)F)cn1)c1cncc(Br)c1 | 4.385 and < 4 | –
Cc1cc(C)n(CCCn2cncc2-c2ccc3c(c2)CC(C)N3C)n1.Cl (stereo not given) | – | IC50 [7]: > 30.2 µM; IC50 (ClpP1P2): > 100 µM; IC50 (Histidine--tRNA ligase [2]): 23.7 µM and 22.2 µM; pIC50 [8]: 4.037; IC50 [8]: 76.7 µM; pIC50 (Plasmodium falciparum): 5.88; IC50 (Plasmodium falciparum): 1.59 µM; pIC50 (Trypanosoma brucei): 4.689 and 4.712; IC50 (Trypanosoma brucei): 28.9 µM
Cl.NC1CCc2nc(-c3ccncc3)nc(Nc3cccc(F)c3)c2C1 (stereo not given) | – | IC50 ([5]; Toxoplasma gondii): 3.66 µM; IC50 (Histidine--tRNA ligase [2]): 46.3 µM and 51.2 µM; pIC50 [8]: < 4; IC50 [8]: 50.4 µM; pIC50 (Trypanosoma brucei): 5.636 and 5.623; IC50 (Trypanosoma brucei): 2.41 µM; pIC50 (Leishmania donovani): 5.181; IC50 (Leishmania donovani): 5.99 µM
COc1cc(CNC2CCCc3c2cnn3C)cc(OC)c1.Cl (stereo not given) | < 4 | –
Cl.Cl.c1ccc(OC[C@@H]2CCC[C@@]23CNCCO3)nc1 | < 4 | –
Cl.Cl.c1cc(COC[C@@H]2CCC[C@@]23CNCCO3)ccn1 | < 4 | –
Cl.Cl.c1cncc(OC[C@@H]2CCC[C@@]23CNCCO3)c1 | < 4 | –
Cc1ccc2c(n1)N(C)CCN(C(=O)NC1CC1)C2.O=C(O)C(F)(F)F | < 4 | –
CN(C)S(=O)(=O)N1C[C@H](Oc2cccnc2)[C@H]2OCCC[C@H]21.O=C(O)C(F)(F)F | < 4 | –
